Data set [1] addresses T1, HDAC1 (Homo sapiens (Human), UniProt Q13547). The data set is described as follows: Caliper HDAC enzymatic endpoint assay, HDAC1. In kind it is biochemical.
Experimental: (§1) Substrate A was prepared as 2 mM in DMSO. Its final concentration in the assay for HDACs 1, 2, 3, 6 is 2 μM.
(§2) Below is the HDAC and Substrate concentration used in this assay.
The target in data set [2] is T2, HDAC2 (Homo sapiens (Human), UniProt Q92769). Put plainly: Caliper HDAC enzymatic endpoint assay, HDAC2. The data set is classed as biochemical.
Experimental: as §1, §2
Data set [3] deals with T3, HDAC3 (Homo sapiens (Human), UniProt O15379). The data set is described as follows: Caliper HDAC enzymatic endpoint assay, HDAC3. The data set is classed as biochemical.
T3 sequence (O15379 whole entry): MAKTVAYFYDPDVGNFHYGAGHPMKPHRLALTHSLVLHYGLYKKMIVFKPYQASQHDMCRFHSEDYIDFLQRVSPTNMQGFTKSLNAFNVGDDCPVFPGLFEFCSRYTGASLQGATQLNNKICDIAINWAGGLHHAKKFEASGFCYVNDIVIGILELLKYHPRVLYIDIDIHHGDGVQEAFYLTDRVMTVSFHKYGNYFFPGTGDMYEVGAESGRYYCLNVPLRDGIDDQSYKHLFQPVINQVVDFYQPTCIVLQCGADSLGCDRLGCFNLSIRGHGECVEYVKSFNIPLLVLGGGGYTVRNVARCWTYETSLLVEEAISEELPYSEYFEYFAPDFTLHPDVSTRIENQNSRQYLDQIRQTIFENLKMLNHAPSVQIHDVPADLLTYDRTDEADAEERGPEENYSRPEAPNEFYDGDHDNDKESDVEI
T3 sequence (Q9Y618 395-489 partner): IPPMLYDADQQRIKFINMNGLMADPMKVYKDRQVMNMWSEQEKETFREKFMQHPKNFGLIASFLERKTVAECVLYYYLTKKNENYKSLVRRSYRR
Experimental: as §1, §2
The next data set addresses HDAC4 (Homo sapiens (Human), UniProt P56524). Put plainly: Caliper HDAC enzymatic endpoint assay, HDAC4. The following applies: Table 2C; read-out: HDAC4 IC50 after 0 hr preincubation. In kind it is biochemical.
For a further data set, the target named is HDAC5 (Homo sapiens (Human), UniProt Q9UQL6). Put plainly: Caliper HDAC enzymatic endpoint assay, HDAC5. The data set is classed as biochemical. The following applies: Table 2C; read-out: HDAC5 IC50 after 0 hr preincubation.
Sequence of HDAC5 (Q9UQL6 whole entry): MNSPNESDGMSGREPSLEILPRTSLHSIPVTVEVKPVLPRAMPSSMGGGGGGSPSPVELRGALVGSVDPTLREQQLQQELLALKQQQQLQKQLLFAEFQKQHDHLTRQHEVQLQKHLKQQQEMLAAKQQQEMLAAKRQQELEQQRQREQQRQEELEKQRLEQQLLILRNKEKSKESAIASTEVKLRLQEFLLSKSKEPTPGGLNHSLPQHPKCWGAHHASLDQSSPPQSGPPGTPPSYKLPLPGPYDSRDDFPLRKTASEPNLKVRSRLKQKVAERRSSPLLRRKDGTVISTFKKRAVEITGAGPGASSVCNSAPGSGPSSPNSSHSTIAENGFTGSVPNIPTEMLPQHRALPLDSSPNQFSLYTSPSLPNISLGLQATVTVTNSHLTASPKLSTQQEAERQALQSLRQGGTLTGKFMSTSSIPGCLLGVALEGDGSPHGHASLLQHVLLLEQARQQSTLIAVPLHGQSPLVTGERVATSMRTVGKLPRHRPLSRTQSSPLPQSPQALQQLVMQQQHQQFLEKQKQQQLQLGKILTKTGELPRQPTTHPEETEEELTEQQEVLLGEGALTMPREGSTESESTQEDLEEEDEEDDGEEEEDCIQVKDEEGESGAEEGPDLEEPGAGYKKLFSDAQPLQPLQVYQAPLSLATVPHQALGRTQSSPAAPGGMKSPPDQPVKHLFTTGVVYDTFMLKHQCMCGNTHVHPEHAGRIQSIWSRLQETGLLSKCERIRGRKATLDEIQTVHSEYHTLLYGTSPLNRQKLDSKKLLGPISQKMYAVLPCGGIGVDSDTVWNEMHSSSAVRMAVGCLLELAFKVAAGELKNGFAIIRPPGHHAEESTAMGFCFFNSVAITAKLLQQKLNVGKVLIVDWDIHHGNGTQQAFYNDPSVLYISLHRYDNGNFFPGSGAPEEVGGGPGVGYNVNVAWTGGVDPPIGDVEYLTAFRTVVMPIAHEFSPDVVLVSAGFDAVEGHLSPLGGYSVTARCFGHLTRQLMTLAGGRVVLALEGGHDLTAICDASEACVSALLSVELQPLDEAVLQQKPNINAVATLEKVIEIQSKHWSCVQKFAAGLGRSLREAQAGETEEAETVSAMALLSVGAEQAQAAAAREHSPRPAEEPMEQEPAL
Another data set addresses HDAC6 (Homo sapiens (Human), UniProt Q9UBN7). Put plainly: Caliper HDAC enzymatic endpoint assay, HDAC6. The data set is classed as biochemical. The following applies: Table 2C; read-out: HDAC6 IC50 after 0 hr preincubation.
The target in a further data set is HDAC7 (Homo sapiens (Human), UniProt Q8WUI4). Put plainly: Caliper HDAC enzymatic endpoint assay, HDAC7. The following applies: Table 2C; read-out: HDAC7 IC50 after 0 hr preincubation. The data set is classed as biochemical.
Sequence of HDAC7 (Q8WUI4 whole entry): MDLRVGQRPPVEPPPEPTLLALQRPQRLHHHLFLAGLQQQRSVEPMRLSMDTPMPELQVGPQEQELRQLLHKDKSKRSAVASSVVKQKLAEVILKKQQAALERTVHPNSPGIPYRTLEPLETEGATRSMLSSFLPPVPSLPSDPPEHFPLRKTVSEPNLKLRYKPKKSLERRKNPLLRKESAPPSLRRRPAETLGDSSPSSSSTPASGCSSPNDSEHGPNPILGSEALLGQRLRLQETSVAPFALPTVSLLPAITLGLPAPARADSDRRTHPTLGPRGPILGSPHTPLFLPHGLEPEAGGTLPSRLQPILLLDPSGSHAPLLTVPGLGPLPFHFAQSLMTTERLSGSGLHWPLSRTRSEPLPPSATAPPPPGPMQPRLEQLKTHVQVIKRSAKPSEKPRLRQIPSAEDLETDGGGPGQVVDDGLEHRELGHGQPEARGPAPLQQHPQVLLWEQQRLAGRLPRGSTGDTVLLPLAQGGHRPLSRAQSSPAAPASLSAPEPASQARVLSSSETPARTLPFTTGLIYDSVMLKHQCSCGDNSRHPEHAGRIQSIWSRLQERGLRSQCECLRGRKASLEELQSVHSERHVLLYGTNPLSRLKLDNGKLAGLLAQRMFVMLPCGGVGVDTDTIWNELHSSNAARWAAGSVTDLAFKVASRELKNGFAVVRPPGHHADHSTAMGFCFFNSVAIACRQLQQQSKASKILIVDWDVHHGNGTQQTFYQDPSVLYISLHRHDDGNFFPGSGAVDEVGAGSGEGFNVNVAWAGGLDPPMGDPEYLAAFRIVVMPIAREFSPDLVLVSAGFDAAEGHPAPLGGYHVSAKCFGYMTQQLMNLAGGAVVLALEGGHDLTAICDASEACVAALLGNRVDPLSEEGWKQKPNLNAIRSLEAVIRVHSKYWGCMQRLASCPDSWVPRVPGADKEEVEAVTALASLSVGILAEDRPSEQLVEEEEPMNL
For the next data set, the target named is HDAC8 (Homo sapiens (Human), UniProt Q9BY41). The data set is described as follows: Caliper HDAC enzymatic endpoint assay, HDAC8. The data set is classed as biochemical. Particulars: Table 2C; read-out: HDAC8 IC50 after 0 hr preincubation.
Sequence of HDAC8 (Q9BY41 whole entry): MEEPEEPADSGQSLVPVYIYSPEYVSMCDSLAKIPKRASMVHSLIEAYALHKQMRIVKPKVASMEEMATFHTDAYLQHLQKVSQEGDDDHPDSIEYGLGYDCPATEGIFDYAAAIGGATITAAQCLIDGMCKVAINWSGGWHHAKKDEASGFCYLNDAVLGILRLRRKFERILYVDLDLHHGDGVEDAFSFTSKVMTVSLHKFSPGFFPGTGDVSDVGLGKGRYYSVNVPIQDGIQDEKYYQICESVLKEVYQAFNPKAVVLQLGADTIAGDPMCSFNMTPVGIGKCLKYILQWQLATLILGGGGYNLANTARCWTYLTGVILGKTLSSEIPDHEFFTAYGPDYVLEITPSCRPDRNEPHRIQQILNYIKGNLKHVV
A further data set deals with HDAC9 (Homo sapiens (Human), UniProt Q9UKV0). The data set is described as follows: Caliper HDAC enzymatic endpoint assay, HDAC9. In kind it is biochemical. Particulars: Table 2C; read-out: HDAC9 IC50 after 0 hr preincubation.
Data set [4] concerns human megakaryocyte progenitors. Put plainly: Growth of human megakaryocyte progenitors (surrogate assay for platelet depletion). The data set is classed as cell-based. Particulars: particularly at 10 μM and 20 μM. The procedure: Compounds of the invention were evaluated for their effect on the growth of human megakaryocyte progenitors (surrogate assay for platelet depletion). Human CD34+ cells were grown in a collagen-based gel (Megacult-C, Stemcell Technologies). […] 100% indicates no difference in cell viability relative to the DMSO treated cells. […] This is the desired effect.

The target in data set [5] is T1, HDAC1. Put plainly: Binding constant from HDAC1 inactivation kinetics. Particulars: HDAC1, values marked *; read-out: Ki (binding constant derived from HDAC1 inactivation kinetics).
Experimental: (§3) HDAC1 inactivation kinetic constant was determined by curve-fitting of the plot to a first-order rate equation.
Data set [6] has as its target T1, HDAC1. Put plainly: Kinetics of the inhibition of HDAC1.
Experimental: as §3
For data set [7], the target named is T2, HDAC2. Put plainly: Kinetics of the inhibition of HDAC2.
Data set [8] addresses T3, HDAC3. Put plainly: Kinetics of the inhibition of HDAC3.
For data set [9], the system named is HDACs 1, 2, 3, 4, 5, 6, 7, 8, and 9. Put plainly: HDAC selectivity panel (Caliper), isoform selectivity. The following applies: from IC50 values.
A short description of data set [10]: Brain and plasma concentration in mice. In kind it is in vivo. Particulars: for half-life: mouse, other: injected (site of injection not given). The procedure:
Specifically, mice were injected with a single dose of compound and the concentration of compound was measured in the brain and plasma of mice at 8 time points. The samples were analyzed by LC-MS/MS.

Setting [11] is: read-out: HDAC1 IC50 3 h Preinc, Table 2A, 3 h preincubation.
The mark [12] stands for this setting: read-out: HDAC2 IC50 3 h Preinc, Table 2A, 3 h preincubation.
[13] abbreviates: read-out: HDAC3 IC50 3 h Preinc, Table 2A, 3 h preincubation.
[14] abbreviates: read-out: HDAC1 IC50 3 h Prein, Table 2, 3 h preincubation.
[15] abbreviates: read-out: HDAC2 IC50 3 h Prein, Table 2, 3 h preincubation.
Where [16] appears, read: read-out: HDAC3 IC50 3 h Prein, Table 2, 3 h preincubation.
Where [17] appears, read: mice, single dose, Repligen 136 30 mg/kg, Compound 1 10 mg/kg.

This note sets out measurements from patent publication US11377423B2, “Inhibitors of histone deacetylase” (The Broad Institute, Inc., priority 2012, dated 2022).

Each structure is given as a SMILES string. Where two headings read alike, the source gives them in different places.

T2 sequence (Q92769 whole entry): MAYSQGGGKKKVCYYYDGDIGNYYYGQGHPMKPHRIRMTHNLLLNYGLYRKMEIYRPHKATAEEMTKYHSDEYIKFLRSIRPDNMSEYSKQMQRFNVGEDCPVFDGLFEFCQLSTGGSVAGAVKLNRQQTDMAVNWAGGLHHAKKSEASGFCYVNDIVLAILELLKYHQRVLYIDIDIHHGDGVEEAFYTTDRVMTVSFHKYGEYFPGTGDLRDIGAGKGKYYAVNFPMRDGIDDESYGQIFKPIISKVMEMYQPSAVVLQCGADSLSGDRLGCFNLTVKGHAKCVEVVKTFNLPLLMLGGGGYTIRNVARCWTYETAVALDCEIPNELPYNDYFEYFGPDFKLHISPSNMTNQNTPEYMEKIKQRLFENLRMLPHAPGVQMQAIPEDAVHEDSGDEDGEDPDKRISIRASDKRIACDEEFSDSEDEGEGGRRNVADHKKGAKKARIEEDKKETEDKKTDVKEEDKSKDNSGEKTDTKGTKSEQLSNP
T1 sequence (Q13547 whole entry): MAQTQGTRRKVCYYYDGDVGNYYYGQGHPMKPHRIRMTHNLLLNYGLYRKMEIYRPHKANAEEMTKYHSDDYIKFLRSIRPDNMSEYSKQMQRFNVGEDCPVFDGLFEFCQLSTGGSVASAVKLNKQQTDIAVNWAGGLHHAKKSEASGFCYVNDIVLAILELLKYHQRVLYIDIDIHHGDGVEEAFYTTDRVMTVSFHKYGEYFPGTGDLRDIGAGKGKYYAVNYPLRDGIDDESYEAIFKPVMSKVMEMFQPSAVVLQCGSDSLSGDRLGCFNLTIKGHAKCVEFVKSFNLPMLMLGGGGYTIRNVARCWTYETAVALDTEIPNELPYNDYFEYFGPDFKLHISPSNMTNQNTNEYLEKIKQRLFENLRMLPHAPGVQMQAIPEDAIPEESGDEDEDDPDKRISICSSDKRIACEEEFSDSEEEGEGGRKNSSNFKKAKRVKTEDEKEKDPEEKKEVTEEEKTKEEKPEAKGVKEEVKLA
Sequence of HDAC4 (P56524 whole entry): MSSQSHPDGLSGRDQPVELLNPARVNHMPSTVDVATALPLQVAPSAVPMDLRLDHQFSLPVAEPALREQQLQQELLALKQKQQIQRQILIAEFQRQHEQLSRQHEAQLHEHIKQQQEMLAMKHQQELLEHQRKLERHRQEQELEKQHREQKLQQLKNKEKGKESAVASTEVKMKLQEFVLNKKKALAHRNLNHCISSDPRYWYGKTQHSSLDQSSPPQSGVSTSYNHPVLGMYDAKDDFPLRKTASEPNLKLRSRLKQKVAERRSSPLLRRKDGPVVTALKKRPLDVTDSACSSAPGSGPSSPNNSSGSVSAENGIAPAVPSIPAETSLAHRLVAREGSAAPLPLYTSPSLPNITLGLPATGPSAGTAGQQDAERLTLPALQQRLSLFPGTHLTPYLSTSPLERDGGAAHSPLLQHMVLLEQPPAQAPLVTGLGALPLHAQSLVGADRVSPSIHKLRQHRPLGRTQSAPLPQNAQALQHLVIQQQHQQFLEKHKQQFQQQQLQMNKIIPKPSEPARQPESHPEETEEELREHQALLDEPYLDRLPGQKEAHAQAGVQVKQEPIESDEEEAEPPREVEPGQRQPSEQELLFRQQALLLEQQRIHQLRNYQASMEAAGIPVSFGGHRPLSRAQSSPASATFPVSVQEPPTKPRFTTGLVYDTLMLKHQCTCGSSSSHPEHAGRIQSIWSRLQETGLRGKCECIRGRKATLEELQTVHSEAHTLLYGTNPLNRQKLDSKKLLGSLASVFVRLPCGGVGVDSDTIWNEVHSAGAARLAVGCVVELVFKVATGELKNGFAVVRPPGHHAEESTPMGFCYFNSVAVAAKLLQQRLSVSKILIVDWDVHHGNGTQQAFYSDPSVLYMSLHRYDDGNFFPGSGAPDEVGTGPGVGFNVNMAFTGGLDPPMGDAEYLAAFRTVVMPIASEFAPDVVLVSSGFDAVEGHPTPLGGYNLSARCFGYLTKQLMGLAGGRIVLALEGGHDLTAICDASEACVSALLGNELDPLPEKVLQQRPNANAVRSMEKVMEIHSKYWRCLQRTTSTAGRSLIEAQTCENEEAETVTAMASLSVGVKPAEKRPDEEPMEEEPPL
Experimental for HDAC4: (§4) The Caliper HDAC Assay Buffer (acronym HAB, 1 liter) was prepared as follows:
(§5) Substrate B was prepared as 2 mM in 100% DMSO. Its final concentration in the assay for HDACs 4, 5, 7, 8, 9 is 2 μM.
(§6) LBH was used as quench inhibitor to stop the reaction at the end point.
IC50 values are in micromolar.
Experimental for HDAC5: as §4, §5, §6
IC50 values are in micromolar.
Experimental for HDAC6: as §1, §2
Experimental for HDAC7: as §4, §5, §6
IC50 values are in micromolar.
Experimental for HDAC8: as §4, §5, §6
IC50 values are in micromolar.
Experimental for HDAC9: as §4, §5, §6
IC50 values are in micromolar.

As a reminder, the IC50 is the concentration that gives 50% inhibition. Regarding `CC(=O)Nc1ccc(C(=O)Nc2cc(-c3ccncc3)ccc2N)cc1` [BRD2492, reference compound], the IC50 at HDAC1 [1] (read-out: HDAC1 IC50 after 3 hr preincubation, Table 2B) was 2 nM; on HDAC2 [2] (read-out: HDAC2 IC50 after 3 hr preincubation, Table 2B), 19 nM; on HDAC3 [3] (read-out: HDAC3 IC50 after 3 hr preincubation, Table 2B), 2080 nM; at HDAC4, over 33000 nM; at HDAC5 it was over 33000 nM; on HDAC6, over 33000 nM. The IC50 on HDAC7, on HDAC8 and on HDAC9 was over 33000 nM throughout. Moreover, in data set [4], the “toxicity to human megakaryocyte progenitors at higher concentrations” value is on record as “highly toxic”.

As for `Nc1cc(F)ccc1NC(=O)c1ccc(CNc2nccc(-c3cccnc3)n2)cc1` [Cmpd 2A, reference compound], the IC50 stood at 12 nM at HDAC1 [1] (setting [11]), 18 nM at HDAC2 [2] (setting [12]) and 17 nM at HDAC3 [3] (setting [13]).

For `Nc1ccccc1NC(=O)c1ccc(CNC(=O)/C=C/c2cccnc2)cc1` [Cmpd 3A, reference compound], the IC50 on HDAC1 [1] (setting [11]) came out at 4 nM; on HDAC2 [2] (setting [12]) it was 23 nM; at HDAC3 [3] (setting [13]), 22 nM.

A word on the koff: it is a measure of how fast the partners let go of each other. The low end stands for slow dissociation, the high end for fast dissociation. As usually defined, the Ki is the equilibrium dissociation constant of an inhibitor or competing ligand from its target. Lower therefore signals tighter binding. `Nc1cc(F)ccc1NC(=O)c1ccc(CNC(=O)OCc2cccnc2)cc1` [Compound 1A, reference compound]: the KI (inactivation) on HDAC1 [5] was 160 nM. In addition, the IC50 on HDAC1 [1] (setting [11]) was determined as 120 nM; at HDAC1 [1] (read-out: HDAC1 IC50 @3 hr, 3 hr preincubation), 120 nM; at HDAC2 [2] (setting [12]), 157 nM; on HDAC2 [2] (read-out: HDAC2 IC50 @3 hr, 3 hr preincubation), 157 nM; on HDAC3 [3] (setting [13]), 36 nM; at HDAC3 [3] (read-out: HDAC3 IC50 @3 hr, 3 hr preincubation), 36 nM. The koff at HDAC1 [6] was over 0.00333 s⁻¹; at HDAC2 [7] it was 0.000633 s⁻¹; on HDAC3 [8], 0.000147 s⁻¹. In addition, the Kon is 1.000 min^−1, uM^−1 at HDAC1 [6] (HDAC1); 0.24 min^−1, uM^−1 at HDAC2 [7] (HDAC2); 0.093 min^−1, uM^−1 on HDAC3 [8] (HDAC3). For the same compound, the T1/2 at HDAC1 [6] (HDAC1 residence) is listed as under 4 min; at HDAC2 [7] (HDAC2 residence) it was 17 min; on HDAC3 [8] (HDAC3 residence) it was 79 min. The figures for the Ki at HDAC2 [7] and on HDAC3 [8] were 160 nM and 93 nM, respectively. For the same compound, the “loss in potency for HDAC3 (Ki) compared to MS-275” value on HDAC3 [8] stood at 8 fold. In addition, on HDAC3 [8] (Ki selectivity HDAC3 versus HDAC1 and 2), the “less selective than compound 1” value was 100 fold. The “binding selectivity (Ki) for HDAC3 versus HDAC1” value on HDAC3 [8] (thermodynamic (Ki)) is on record as 1.7 fold. For the same compound, the “binding selectivity (Ki) for HDAC3 versus HDAC2” value on HDAC3 [8] (thermodynamic (Ki)) was determined as 1.7 fold.

On to `CC(=O)Nc1ccc(C(=O)Nc2ccc(Cl)cc2N)cc1` [Compound 2, 4-acetamido-N-(2-amino-4-chlorophenyl)benzamide], for which the values for the IC50 on HDAC1 [1] (setting [14]), at HDAC2 [2] (setting [15]) and on HDAC3 [3] (setting [16]) were 4560 nM, 24400 nM and 2050 nM, respectively.

As for `CC(=O)Nc1ccc(C(=O)Nc2c(N)cccc2F)cc1` [Compound 3, 4-acetamido-N-(2-amino-6-fluorophenyl)benzamide], the IC50 on HDAC1 [1] (setting [14]) was found to be 2180 nM; at HDAC2 [2] (setting [15]) it was 4930 nM; at HDAC3 [3] (setting [16]) it was 551 nM. Moreover, the “HDAC isoform selectivity” value in [9] is “HDAC3 selective compound”.

On to `CC(=O)Nc1ccc(C(=O)Nc2cccc(F)c2N)cc1` [Compound 4, 4-acetamido-N-(2-amino-3-fluorophenyl)benzamide], for which the IC50 came to 2120 nM on HDAC1 [1] (setting [14]), 4440 nM on HDAC2 [2] (setting [15]) and 376 nM at HDAC3 [3] (setting [16]). Further, the “HDAC isoform selectivity” value in [9] is “HDAC3 selective compound”.

As to `CC(=O)Nc1ccc(C(=O)Nc2cc(Br)ccc2N)cc1` [Compound 5, 4-acetamido-N-(2-amino-5-bromophenyl)benzamide], the IC50 at HDAC1 [1] (setting [14]) was 1730 nM; on HDAC2 [2] (setting [15]), 3540 nM; at HDAC3 [3] (setting [16]) it was 299 nM.

For the compound `CC(=O)Nc1ccc(C(=O)Nc2ccc(F)cc2N)c(F)c1` [Compound 6, 4-acetamido-N-(2-amino-4-fluorophenyl)-2-fluorobenzamide], the results for the IC50 on HDAC1 [1] (setting [14]), on HDAC2 [2] (setting [15]) and at HDAC3 [3] (setting [16]) were 1380 nM, 3120 nM and 80 nM, respectively. The “HDAC isoform selectivity” value in data set [9] is listed as “HDAC3 selective compound”.

For `Nc1cc(F)ccc1NC(=O)c1ccccc1` [Compound 7, N-(2-amino-4-fluorophenyl)benzamide], the IC50 turned out to be 7950 nM on HDAC1 [1] (setting [14]), 12700 nM at HDAC2 [2] (setting [15]) and 418 nM at HDAC3 [3] (setting [16]). Further, the “HDAC isoform selectivity” value in [9] was “HDAC3 selective compound”.

As to `Nc1cc(F)ccc1NC(=O)c1ccc(F)cc1` [Compound 8, N-(2-amino-4-fluorophenyl)-4-fluorobenzamide], the IC50 at HDAC1 [1] (setting [14]) worked out at 8260 nM; on HDAC2 [2] (setting [15]), 11700 nM; at HDAC3 [3] (setting [16]), 436 nM. For the same compound, the “HDAC isoform selectivity” value in data set [9] is on record as “HDAC3 selective compound”.

Regarding `CC(=O)Nc1ccc(C(=O)Nc2ccc(C(F)(F)F)cc2N)cc1` [Compound 10, 4-acetamido-N-(2-amino-4-(trifluoromethyl)phenyl)benzamide], the IC50 at HDAC1 [1] (setting [14]), on HDAC2 [2] (setting [15]) and on HDAC3 [3] (setting [16]) was over 33000 nM each time.

`CC(=O)Nc1ccc(C(=O)Nc2cc(F)ccc2N)cc1` [Compound 11, 4-acetamido-N-(2-amino-5-fluorophenyl)benzamide]: the values for the concentration for half-maximal inhibition (IC50) on HDAC1 [1] (setting [14]), at HDAC2 [2] (setting [15]) and at HDAC3 [3] (setting [16]) were 153 nM, 479 nM and 106 nM, respectively.

Take `CC(=O)Nc1ccc(C(=O)Nc2ccccc2N)c(F)c1` [Compound 12, 4-acetamido-N-(2-aminophenyl)-2-fluorobenzamide]: the values for the IC50 at HDAC1 [1] (setting [14]), on HDAC2 [2] (setting [15]) and on HDAC3 [3] (setting [16]) were 90 nM, 304 nM and 84 nM, respectively.

For `Cc1ccc(C(=O)NCCCCCC(=O)Nc2ccc(F)cc2N)cc1` [Repligen 136, N-(6-(2-amino-4-fluorophenylamino)-6-oxohexyl)-4-methylbenzamide, reference compound], in data set [10] (setting [17]), the “AUC Brain” value is 0.32 µM·h, the “Cmax Brain” value turned out to be 370 nM and the “concentration in the brain over time” value is “not measurable after 2 hours”. Also, in data set [10] (brain, read-out: T1/2 Brain (converted)), the half-life is 20.4 min. In addition, the half-life in data set [10] (plasma, read-out: T1/2 Plasma (converted)) was 82.8 min.
